# Measured values as given in patent US20200268768A1, “CENICRIVIROC COMBINATION THERAPY FOR THE TREATMENT OF FIBROSIS” (Tobira Therapeutics, Inc., priority 2015, published 2020).
# Legend:
# [1] = test system: STAM mouse model of Non-alcoholic Steatohepatitis; test: STAM mouse model of NASH, anti-HCC effects at week 18; details: for Mice that died (survival analysis): 6 to 18 weeks; for Body weight / CD31-positive area / Liver weight / Liver-to-body weight ratio / Maximum diameter of visible tumor nodules / Number of visible tumor nodules: mean ± SD
# Description: Group 1-Vehicle: Eighteen NASH mice were orally administered vehicle at a volume of 10 mL/kg twice daily (9:00 and 19:00) from 6 weeks of age.
# [2] = test system: HIV-1 infected adult subjects; test: Study 202 biomarkers of inflammation; type: in vivo, human
# Description: As an exploratory analysis, levels of inflammation biomarkers MCP-1, sCD14, high sensitivity C-reactive protein [hs-CRP], interleukin-6 [IL-6], D-dimer, and fibrinogen) were measured. Baseline values and changes from baseline at Week 24 and Week 48 of MCP-1, sCD14, hs-CRP, IL-6, D-dimer, and fibrinogen are summarized in Table 22.
# The sCD14 samples were originally analyzed in 2 separate batches: Batch 1 included samples leading up to the Week 24 primary analysis and Batch 2 included Week 32 and Week 48 (end of study) samples. A repeat analysis of archived samples all analyzed in one batch was conducted for consistency in analysis across time points. To control for the effects of covariates, a linear mixed-model repeated-measures analysis was conducted on the changes from baseline in sCD14 (analysis dated September 2013).
# [3] = test system: mouse UUO model of renal fibrosis; test: Mouse unilateral ureter occlusion (UUO) model of renal fibrosis; type: in vivo, CD-1 mice; details: for Reduction of UUO-induced increase in composite Collagen Volume Fraction (CVF): ±SEM
# Description: Test animals were allocated to weight-matched treatment groups on the day prior to the surgical procedure (Day −1). Male CD-1 mice (N=51; age, 7-8 weeks) underwent either sham surgery or total ligation of the right ureter, i.e. UUO, via aseptic laparotomy (FIG. 5). […] Another group received the anti-transforming growth factor TGF-β1 antibody, compound 1D11 (positive control) at 3 mg/kg/day from Days −1 to 4, injected intraperitoneally once daily, and vehicle control from Days 0 to 5. […] On Day 5, animals were anaesthetised, blood and tissues were collected prior to sacrifice.
# Study endpoints included: a) body and kidney weights; b) fibrosis in obstructed kidney evaluated via histological quantitative image analysis of picrosirius red staining (ten images/depth/kidney obtained and assessed in a blinded fashion using light microscopy [at 200×] to enable sampling of 60-70% of the renal cortical area) and quantified by a composite Collagen Volume Fraction (CVF [% total area imaged]) score expressed as the average positive stain across three anatomically distinct (200-250 μM apart) tissue sections, or depths, from the obstructed kidney; c) hydroxyproline content of frozen renal cortical tissue biopsies as assessed by biochemical analyses; d) mRNA expression of profibrotic and inflammatory biomarkers (including MCP-1, Collagen 1a1, Collagen 3α1, TGF-β31, Fibronectin-1, α-smooth muscle actin (α-SMA) and connective tissue growth factor-1 (CTGF-1); assessed via Luminex® (Life Technologies™, Carlsbad, Calif., USA) assay with relative expression normalised to HPRT (hypoxanthine phosphoribosyltransferase).
# Data are expressed as mean±standard error of mean (SEM). Statistical analyses were performed using GraphPad Prism® (GraphPad Software, Inc., San Diego, Calif., USA). Treatment differences between sham-surgery+vehiclecontrol and UUO+vehicle-control groups, and between UUO+vehicle-control and UUO+compound-1D11 (positive control) groups, were analysed by unpaired t-Test. Treatment differences between UUO+vehicle-control and CVC-dose groups were analysed by one-way ANOVA (analysis of variance) with Dunnett's test (post-hoc).
# [4] = CVC-high 100 mg/kg/day oral, week 18
# [5] = CVC-high 100 mg/kg/day oral, week 18, listed as Cenicriviroc
# [6] = CVC-low 20 mg/kg/day oral, week 18
# [7] = CVC-low 20 mg/kg/day oral, week 18, listed as Cenicriviroc
# [8] = CVC 7 and 20 mg/kg/day, compound 1D11 3 mg/kg/day, versus UUO+vehicle-control
structure (smiles),measurement,setting,value
"CCCCOCCOc1ccc(-c2ccc3c(c2)C=C(C(=O)Nc2ccc([S@@+]([O-])Cc4cncn4CCC)cc2)CCCN3CC(C)C)cc1 [CVC, (S)-8-[4-(2-Butoxyethoxy)phenyl]-1-isobutyl-N-(4-{[(1-propyl-1H-imidazol-5-yl)methyl]sulfinyl}phenyl)-1,2,3,4-tetrahydro-1-benzazocine-5-carboxamide]",Effect on NASH-derived HCC,"[1]; CVC treatment groups, week 18",not observed
same,Mice that died (survival analysis),[1]; CVC-high 100 mg/kg/day oral,Five out of twelve
same,Mice with GS-positive nodules,[1]; [4],seven out of seven
same,Mice with HCC lesions (HE staining),[1]; [4],six out of seven
same,Body weight,[1]; [4],20.8 ± 2.7 g
same,CD31-positive area,[1]; [4],3.68±1.37%
same,Liver weight,[1]; [4],1817 ± 446 mg
same,Liver-to-body weight ratio,[1]; [4],8.8±2.3%
same,Maximum diameter of visible tumor nodules,[1]; [4],5.3±5.1 mm
same,Number of visible tumor nodules,[1]; [4],3.6±2.5
same,Body weight,[1]; [5],20.8 ± 2.7 g
same,CD31-positive area,[1]; [5],3.68 ± 1.37%
same,Liver weight,[1]; [5],1817 ± 446 mg
same,Liver-to-body weight ratio,[1]; [5],8.8 ± 2.3%
same,Maximum diameter of visible tumor nodules,[1]; [5],5.3 ± 5.1 mm
same,Number of visible tumor nodules,[1]; [5],3.6 ± 2.5
same,Mice that died (survival analysis),[1]; CVC-low 20 mg/kg/day oral,Six out of twelve
same,Mice with GS-positive nodules,[1]; [6],five out of six
same,Mice with HCC lesions (HE staining),[1]; [6],five out of six
same,Body weight,[1]; [6],22.9 ± 3.5 g
same,CD31-positive area,[1]; [6],1.47±1.10%
same,Liver weight,[1]; [6],1837 ± 410 mg
same,Liver-to-body weight ratio,[1]; [6],8.3±2.8%
same,Maximum diameter of visible tumor nodules,[1]; [6],4.8±5.4 mm
same,Number of visible tumor nodules,[1]; [6],1.5±1.9
same,Body weight,[1]; [7],22.9 ± 3.5 g
same,CD31-positive area,[1]; [7],1.47 ± 1.10%
same,Liver weight,[1]; [7],1837 ± 410 mg
same,Liver-to-body weight ratio,[1]; [7],8.3 ± 2.8%
same,Maximum diameter of visible tumor nodules,[1]; [7],4.8 ± 5.4 mm
same,Number of visible tumor nodules,[1]; [7],1.5 ± 1.9
same,"sCD14 (original values) change from baseline, mean","[2]; CVC 100 mg, Week 12",-140000 pg/mL
same,"sCD14 (original values) change from baseline, median","[2]; CVC 100 mg, Week 12",-160000 pg/mL
same,"D-dimer change from baseline, mean","[2]; CVC 100 mg, Week 24",-32 ng/mL
same,"D-dimer change from baseline, median","[2]; CVC 100 mg, Week 24",-1.0 ng/mL
same,"Fibrinogen change from baseline, mean","[2]; CVC 100 mg, Week 24",-3 mg/dL
same,"Fibrinogen change from baseline, median","[2]; CVC 100 mg, Week 24",-14 mg/dL
same,"IL-6 change from baseline, mean","[2]; CVC 100 mg, Week 24",0.42 pg/mL
same,"IL-6 change from baseline, median","[2]; CVC 100 mg, Week 24",0.00 pg/mL
same,"MCP-1 change from baseline, mean","[2]; CVC 100 mg, Week 24",493 pg/mL
same,"MCP-1 change from baseline, median","[2]; CVC 100 mg, Week 24",429 pg/mL
same,"hs-CRP change from baseline, mean","[2]; CVC 100 mg, Week 24",-0.16 mg/dL
same,"hs-CRP change from baseline, median","[2]; CVC 100 mg, Week 24",-0.03 mg/dL
same,"sCD14 (original values) change from baseline, mean","[2]; CVC 100 mg, Week 24",-190000 pg/mL
same,"sCD14 (original values) change from baseline, median","[2]; CVC 100 mg, Week 24",-180000 pg/mL
same,"sCD14 (original values) change from baseline, mean","[2]; CVC 100 mg, Week 32",110000 pg/mL
same,"sCD14 (original values) change from baseline, median","[2]; CVC 100 mg, Week 32",120000 pg/mL
same,"D-dimer change from baseline, mean","[2]; CVC 100 mg, Week 48",-41 ng/mL
same,"D-dimer change from baseline, median","[2]; CVC 100 mg, Week 48",-1.0 ng/mL
same,"Fibrinogen change from baseline, mean","[2]; CVC 100 mg, Week 48",11 mg/dL
same,"Fibrinogen change from baseline, median","[2]; CVC 100 mg, Week 48",15 mg/dL
same,"IL-6 change from baseline, mean","[2]; CVC 100 mg, Week 48",0.29 pg/mL
same,"IL-6 change from baseline, median","[2]; CVC 100 mg, Week 48",0.00 pg/mL
same,"MCP-1 change from baseline, mean","[2]; CVC 100 mg, Week 48",636 pg/mL
same,"MCP-1 change from baseline, median","[2]; CVC 100 mg, Week 48",523 pg/mL
same,"hs-CRP change from baseline, mean","[2]; CVC 100 mg, Week 48",-0.08 mg/dL
same,"hs-CRP change from baseline, median","[2]; CVC 100 mg, Week 48",-0.01 mg/dL
same,"sCD14 (original values) change from baseline, mean","[2]; CVC 100 mg, Week 48",100000 pg/mL
same,"sCD14 (original values) change from baseline, median","[2]; CVC 100 mg, Week 48",100000 pg/mL
same,"sCD14 (original values) change from baseline, mean","[2]; CVC 200 mg, Week 12",-230000 pg/mL
same,"sCD14 (original values) change from baseline, median","[2]; CVC 200 mg, Week 12",-210000 pg/mL
same,"D-dimer change from baseline, mean","[2]; CVC 200 mg, Week 24",-64 ng/mL
same,"D-dimer change from baseline, median","[2]; CVC 200 mg, Week 24",-50 ng/mL
same,"Fibrinogen change from baseline, mean","[2]; CVC 200 mg, Week 24",-7 mg/dL
same,"Fibrinogen change from baseline, median","[2]; CVC 200 mg, Week 24",-8 mg/dL
same,"IL-6 change from baseline, mean","[2]; CVC 200 mg, Week 24",0.81 pg/mL
same,"IL-6 change from baseline, median","[2]; CVC 200 mg, Week 24",0.00 pg/mL
same,"MCP-1 change from baseline, mean","[2]; CVC 200 mg, Week 24",753 pg/mL
same,"MCP-1 change from baseline, median","[2]; CVC 200 mg, Week 24",695 pg/mL
same,"hs-CRP change from baseline, mean","[2]; CVC 200 mg, Week 24",-0.04 mg/dL
same,"hs-CRP change from baseline, median","[2]; CVC 200 mg, Week 24",-0.04 mg/dL
same,"sCD14 (original values) change from baseline, mean","[2]; CVC 200 mg, Week 24",-230000 pg/mL
same,"sCD14 (original values) change from baseline, median","[2]; CVC 200 mg, Week 24",-190000 pg/mL
same,"sCD14 (original values) change from baseline, mean","[2]; CVC 200 mg, Week 32",20000 pg/mL
same,"sCD14 (original values) change from baseline, median","[2]; CVC 200 mg, Week 32",-20000 pg/mL
same,"D-dimer change from baseline, mean","[2]; CVC 200 mg, Week 48",-70 ng/mL
same,"D-dimer change from baseline, median","[2]; CVC 200 mg, Week 48",-50 ng/mL
same,"Fibrinogen change from baseline, mean","[2]; CVC 200 mg, Week 48",-10 mg/dL
same,"Fibrinogen change from baseline, median","[2]; CVC 200 mg, Week 48",-13 mg/dL
same,"IL-6 change from baseline, mean","[2]; CVC 200 mg, Week 48",-0.04 pg/mL
same,"IL-6 change from baseline, median","[2]; CVC 200 mg, Week 48",0.00 pg/mL
same,"MCP-1 change from baseline, mean","[2]; CVC 200 mg, Week 48",900 pg/mL
same,"MCP-1 change from baseline, median","[2]; CVC 200 mg, Week 48",756 pg/mL
same,"hs-CRP change from baseline, mean","[2]; CVC 200 mg, Week 48",-0.18 mg/dL
same,"hs-CRP change from baseline, median","[2]; CVC 200 mg, Week 48",-0.04 mg/dL
same,"sCD14 (original values) change from baseline, mean","[2]; CVC 200 mg, Week 48",-40000 pg/mL
same,"sCD14 (original values) change from baseline, median","[2]; CVC 200 mg, Week 48",-40000 pg/mL
same,Reduction of UUO-induced increase in composite Collagen Volume Fraction (CVF),"[3]; CVC 7 mg/kg/day oral, Day 5",28.6±8.8%
same,Reduction of UUO-induced increase in composite Collagen Volume Fraction (CVF),"[3]; CVC 20 mg/kg/day oral, Day 5, one outlier excluded",31.8±6.8%
same,Tolerability after UUO surgery,[3]; CVC 100 mg/kg/day group (N=9),terminated early due to moribundity
same,Effect on obstructed kidney hydroxyproline content,"[3]; CVC 7 and 20 mg/kg/day, Day 5",Neither dose of CVC tested affected UUO-induced increases in obstructed kidney hydroxyproline content
same,"Collagen 1a1, Collagen 3α1, TGF-β1 and Fibronectin-1 mRNA expression in obstructed kidney",[3]; [8],"these reductions, compared with the UUO+vehicle-control group, did not reach statistical significance"
same,"Obstructed kidney cortical MCP-1, α-SMA and CTGF-1 mRNA expression",[3]; [8],did not have significant effects
same,Effect on body weight relative to UUO+vehicle-control,"[3]; Day 5, CVC 7 mg/kg/day oral, compound 1D11 3 mg/kg/day i.p.",no effect on body weight
same,Decrease in body weight relative to UUO+vehicle-control,"[3]; Day 5, CVC 20 mg/kg/day oral",5%
same,Obstructed or contralateral kidney weight or kidney weight index versus UUO+vehicle-control,"[3]; Day 5, CVC 7 and 20 mg/kg/day, compound 1D11 3 mg/kg/day",No significant treatment effects
